US10011571B2, “Preparation method for aromatic heterocyclic compound used as selective JAK3 and/or JAK1 kinase inhibitor and application of aromatic heterocyclic compound” (SHENZHEN CHIPSCREEN BIOSCIENCES, LTD., priority 2014, dated 2018)

How the values were obtained:
[1] = tested on: IL-2/JAK1 & 3/STAT5 (hPBC); assay: Intracellular activity assay, IL-2 induced STAT5 phosphorylation in hPBC; assay type: cell-based; settings: Homo sapiens; inhibition of STAT5 phosphorylation, activated hPBC, IL-2 10 ng/mL
Description: In this experiment, western blot (WB) and flow cytometry are used to evaluate the intracellular activities of the test compounds by comparing the relative levels of the signals of phosphorylated and non-phosphorylated STATs in 5 cell models, including U937, THP-1, CTLL-2, UT-7/EPO and activated human periphery blood cell (hPBC). The primary antibody and secondary antibody used in WB hybridization in this experiment are purchased from Cell Signaling Company (http://www.cellsignal.com). The fluorescence-labeled antibodies used in flow cytometry are purchased from eBiosciences Company (http://www.ebioscience.com).
Cytokine IL-2 dependent proliferation is formed after activation by co-stimulation of human periphery blood cell (hPBC) with CD3 antibody. The growth signal pathway is mediated by the heterodimer of JAK1/3 and induces the phosphorylation of downstream STAT5. The intracellular inhibitory activity of the compounds on JAK1/3 can be evaluated by detecting the change of the phosphorylation level of STAT5.
(1) Treatment by the compound: the experiment is carried out in a 6-well plate. […]
(2) Cell fixation and fluorescence labeling: the cells are fixed using paraformaldehyde (30 min), and subsequently treated for membrane permeability in chilled methanol (15 min). […]
(3) Detection by flow cytometry: the detection is carried out using Guava® easyCyte flow cytometer according to the instruction. The median fluorescent intensity (MFI) of a sample is detected using an appropriate cell population. On such a basis, the relative signal intensities are calculated for the phosphorylated STATs treated by the compounds at different concentrations by reference to the signal of the negative (with no factor stimulation) and the positive control (with both factor stimulation and solvent control) in the experiment, so that the IC50 of the compound for the inhibitory activity on STATs phosphorylation can be evaluated.

JAK2 = JAK2 (Homo sapiens (Human), UniProt O60674); assay: Z'-LYTE enzymatic activity detection, JAK2; assay type: biochemical; settings: test compound 30 nM; for inhibition at 0.03 µM: read-out: JAK2 % inhibitory rate @30 nM
Chain of JAK2 (O60674 whole entry): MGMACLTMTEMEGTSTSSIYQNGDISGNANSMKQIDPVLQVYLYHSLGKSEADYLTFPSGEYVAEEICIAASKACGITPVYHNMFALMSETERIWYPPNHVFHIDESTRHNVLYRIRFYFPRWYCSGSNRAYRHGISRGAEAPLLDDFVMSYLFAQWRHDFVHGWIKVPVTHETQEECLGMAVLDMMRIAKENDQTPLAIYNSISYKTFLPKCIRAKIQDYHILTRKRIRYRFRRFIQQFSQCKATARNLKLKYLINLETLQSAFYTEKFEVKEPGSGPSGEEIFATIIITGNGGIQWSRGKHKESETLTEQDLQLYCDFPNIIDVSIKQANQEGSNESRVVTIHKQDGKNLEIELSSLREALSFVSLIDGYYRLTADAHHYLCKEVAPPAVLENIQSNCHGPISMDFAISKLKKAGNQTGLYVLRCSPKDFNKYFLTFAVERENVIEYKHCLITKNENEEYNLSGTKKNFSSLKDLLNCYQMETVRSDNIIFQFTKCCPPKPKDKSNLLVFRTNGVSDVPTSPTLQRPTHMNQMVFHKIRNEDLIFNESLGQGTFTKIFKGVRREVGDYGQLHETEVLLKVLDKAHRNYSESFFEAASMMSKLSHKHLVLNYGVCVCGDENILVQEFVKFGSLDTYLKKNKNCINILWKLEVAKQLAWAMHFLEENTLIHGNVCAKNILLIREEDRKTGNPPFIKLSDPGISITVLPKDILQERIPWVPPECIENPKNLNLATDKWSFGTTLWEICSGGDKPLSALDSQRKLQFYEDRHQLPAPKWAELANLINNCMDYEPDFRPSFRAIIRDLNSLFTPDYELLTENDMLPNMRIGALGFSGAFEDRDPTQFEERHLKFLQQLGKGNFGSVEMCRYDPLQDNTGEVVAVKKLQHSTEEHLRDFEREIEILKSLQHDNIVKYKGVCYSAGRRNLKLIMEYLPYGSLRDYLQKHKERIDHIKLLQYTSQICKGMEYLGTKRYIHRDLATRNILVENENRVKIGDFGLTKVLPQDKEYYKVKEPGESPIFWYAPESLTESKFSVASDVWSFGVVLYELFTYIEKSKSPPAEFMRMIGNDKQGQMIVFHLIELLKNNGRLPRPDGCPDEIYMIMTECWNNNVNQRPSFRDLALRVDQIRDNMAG
Method in brief: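 GST-tagged human recombinant kinases with Z′-LYTE peptides (Tyr6 for JAK1, Tyr4 for JAK2 and JAK3), ATP from kit, reacted 1 h at room temperature; development 1 h, ratio 445/520 nm at 400 nm excitation gives phosphorylation. Inhibition vs solvent control at 30 nM (JAK2, JAK3) or 300 nM (JAK1); tofacitinib as positive control.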

Compound	IC50 [1]	inhibition at 0.03 µM (JAK2)	JAK2 RV (ratio between the inhibitory rate of the test compound and that of Xeljanz) (JAK2)
C=CC(=O)N(C)c1cc(Nc2ncc(Cl)c(NCCCNC(=O)c3ccc(F)cc3)n2)ccc1F [Example 23, N-(3-(5-chloro-2-(4-fluoro-3-(N-methylacrylamido)phenylamino)pyrimidinyl-4-amino)propyl)-4-fluorobenzamide]	240 nM	0%	
C=CC(=O)N(C)c1cc(Nc2ncc(Cl)c(NCCCNC(=O)c3ccc(C(F)(F)F)cc3)n2)ccc1F [Example 22, N-(3-(5-chloro-2-(4-fluoro-3-(N-methylacrylamido)phenylamino)pyrimidinyl-4-amino)propyl)-4-trifluoromethylbenzamide]	200 nM	0%	
C=CC(=O)N(C)c1cc(Nc2ncc(Cl)c(NCCCNC(=O)c3ccc(C#N)cc3)n2)ccc1F [Example 7, N-(3-(5-chloro-2-(4-fluoro-3-(N-methylacrylamido)phenylamino)pyrimidinyl-4-amino)propyl)-4-cyano-benzamide]	160 nM	5%	0.08
